PubChem BioAssay (NCI)
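Interpolation was linear, between the two tested concentrations surrounding the appropriate level; five concentrations were tested over 48 hours in 96-well plates. GI50: concentration for 50% inhibition of growth. At the TGI there is no net growth.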

Tests used:
Assay in all cases: NCI anticancer screen, dose series, 48 h
EKVX NSCLC = test system: EKVX NSCLC
RXF 393 renal = test system: RXF 393 renal
HOP-62 NSCLC = test system: HOP-62 NSCLC
CCRF-CEM leukemia = test system: CCRF-CEM leukemia
RPMI-8226 leukemia = test system: RPMI-8226 leukemia
HOP-92 NSCLC = test system: HOP-92 NSCLC
M14 melanoma = test system: M14 melanoma

| SMILES | TGI (EKVX NSCLC) | TGI (RXF 393 renal) | TGI (HOP-62 NSCLC) | TGI (CCRF-CEM leukemia) | TGI (RPMI-8226 leukemia) | TGI (HOP-92 NSCLC) | TGI (M14 melanoma) | GI50 (RXF 393 renal) | GI50 (M14 melanoma) | GI50 (HOP-62 NSCLC) | GI50 (CCRF-CEM leukemia) | GI50 (RPMI-8226 leukemia) | GI50 (HOP-92 NSCLC) | GI50 (EKVX NSCLC) |
| --- | --- | --- | --- | --- | --- | --- | --- | --- | --- | --- | --- | --- | --- | --- |
| CN/N=C(/CC(=O)c1sc(-n2nc(-c3ccccc3)cc2-c2ccccc2)nc1C)C(=O)Nc1ccc(Cl)c(Cl)c1 | 17.7 µM | > 100 µM | > 100 µM | > 100 µM | > 100 µM | 70.4 µM | – | – | – | – | – | – | – | – |
| CCOC1=C2C(C)(CCC3[C@@]4(C)C=CC(=O)C(C)(C)C4CC(O)[C@@]23C)C(c2ccoc2)C1=O (some centres not stated) | 67.7 µM | 34 µM | 36.8 µM | 38.9 µM | 49.8 µM | 41.9 µM | > 100 µM | – | – | – | – | – | – | – |
| O=C(CC(=O)c1cccc([N+](=O)[O-])c1)C(=O)Nc1nc([N+](=O)[O-])cs1 | > 100 µM | > 100 µM | > 100 µM | > 100 µM | > 100 µM | > 100 µM | > 100 µM | – | – | – | – | – | – | – |
| CCC[CH2][Ge]([CH2]CCC)([CH2]CCC)[O]C(=O)C(OC(C)=O)c1ccccc1 (configuration not stated) | 9.37 µM | 1.44 µM | 16.1 µM | > 26.1 µM | 4.82 µM | 12.3 µM | 6.57 µM | 0.102 µM | 1.05 µM | 2.18 µM | 0.229 µM | 0.297 µM | 0.438 µM | – |
| N#Cc1nc(Nc2ccc(Cl)cc2)sc1N | 83.2 µM | – | 46 µM | > 100 µM | > 65.6 µM | 52.1 µM | > 85.7 µM | – | – | – | – | – | – | – |
| O=C1C2C3CCC(C2C(=O)N1CO)C1C2C(=O)N(CO)C(=O)C2C31 (configuration not stated) | > 100 µM | > 68.6 µM | > 100 µM | 48.2 µM | 47.7 µM | > 100 µM | > 100 µM | – | – | – | – | – | – | – |
| CC1=C2[C@@H](c3ccccc3)C3C=CC2(c2ccccc23)N(C(=O)Nc2cccc3ccccc23)C1=O (some centres not stated) | > 100 µM | – | > 100 µM | > 100 µM | > 100 µM | > 100 µM | > 100 µM | – | – | – | – | – | – | – |
| N#CC(C#N)=Cc1ccc(Oc2ccccc2)cc1 | > 100 µM | > 100 µM | > 100 µM | > 75.4 µM | 57.3 µM | – | 47.2 µM | – | – | – | – | – | – | – |
| CCCCCCCCCCCCCC(=O)OC1C(CO)OC(=O)C1O (configuration not stated) | > 100 µM | > 100 µM | > 100 µM | > 100 µM | > 100 µM | 95.9 µM | > 100 µM | – | – | – | – | – | – | – |
| C[CH2][Sn]([Cl])([CH2]C)[CH2]C | 11.6 µM | – | 4.14 µM | 3.12 µM | 9.17 µM | 0.689 µM | 5.46 µM | – | 1.27 µM | 1.04 µM | 0.368 µM | 0.399 µM | 0.186 µM | 1.06 µM |
